From PMC4833300, “Identification of Trypanocidal Activity for Known Clinical Compounds Using a New Trypanosoma cruzi Hit-Discovery Screening Cascade” (PLoS Neglected Tropical Diseases, 2016)
Like-named read-outs stand apart in the source and are kept apart here.

Experiments:
[1] = system: intracellular T. cruzi; experiment: Rate-of-kill assay (static-cidal assay in timecourse format); format: cell-based, Trypanosoma cruzi (Silvio X10/7 A1) in Vero cells; settings: for MCC: Trypanosoma cruzi, -LOG(MCC[M]), minimum cidal concentration, lowest concentration clearing at least half as many Vero cells as Nifurtimox (50μM) within 96 h, read-out: pMCC (RoK) (converted); for rate-of-kill profile (onset / rate of cidal activity): timepoints every 24h up to 96 h; for final residual level of infection (percent infected cells at the end of the assay): end of rate-of-kill timecourse (96 h)
Protocol: The rate-of-kill assay uses the same protocol as the static-cidal assay but plates are incubated for 24, 48, 72 and 96 hours prior to fixing. Percent infected data is plotted as a time-course for each compound at every concentration. The minimum cidal concentration (MCC) is defined as the lowest concentration of compound that clears at least half as many Vero cells of intracellular parasites as Nifurtimox (50μM) within the timeframe of the assay.
To obtain rate-of-kill information we carried out the static-cidal assay in timecourse format (Fig 4A), with timepoints taken every 24h.

[2] = system: intracellular T. cruzi; experiment: Static-cidal assay (percent infected Vero cells, 96 h); format: cell-based, Trypanosoma cruzi (Silvio X10/7 A1) in Vero cells; settings: for MAX PI / maximum inhibition in the static-cidal assay: 96h timeframe of the assay
Protocol: The secondary static-cidal assay uses the same protocol as the standard assay with the following changes: infection is done at MOI 10, and infected Vero cells are incubated 88h at 37°C in presence of 5% CO2 prior to trypsinisation and plating. Four hours after plating a control plate (no compounds) was fixed with formaldehyde as described above. Compound containing plates were fixed after incubation for 96 hours. Compounds are run as ten point dose response curves in triplicate. The algorithm for the secondary assay was similar to the primary assay but reported percent infected Vero cells instead of the mean number of parasites.
To assess screening hits for their ability to be cytocidal rather than cytostatic or growth slowing we developed a medium throughput (400 compounds / batch) assay to predict cidality of compounds against intracellular T. cruzi. […] Instead we developed an algorithm that assesses whether a Vero cell is infected or not, and we used the percentage of infected cells as primary measurement for the static-cidal assay. In order to readily identify cidal compounds we normalised the raw data using the starting level of infection as 0% effect and the final level of infection in presence of 50μM Nifurtimox as 100% effect control.

[3] = molecular target: CYP51 (Trypanosoma cruzi, UniProt Q7Z1V1); experiment: biochemical; format: biochemical
Chain of CYP51 (Q7Z1V1 whole entry): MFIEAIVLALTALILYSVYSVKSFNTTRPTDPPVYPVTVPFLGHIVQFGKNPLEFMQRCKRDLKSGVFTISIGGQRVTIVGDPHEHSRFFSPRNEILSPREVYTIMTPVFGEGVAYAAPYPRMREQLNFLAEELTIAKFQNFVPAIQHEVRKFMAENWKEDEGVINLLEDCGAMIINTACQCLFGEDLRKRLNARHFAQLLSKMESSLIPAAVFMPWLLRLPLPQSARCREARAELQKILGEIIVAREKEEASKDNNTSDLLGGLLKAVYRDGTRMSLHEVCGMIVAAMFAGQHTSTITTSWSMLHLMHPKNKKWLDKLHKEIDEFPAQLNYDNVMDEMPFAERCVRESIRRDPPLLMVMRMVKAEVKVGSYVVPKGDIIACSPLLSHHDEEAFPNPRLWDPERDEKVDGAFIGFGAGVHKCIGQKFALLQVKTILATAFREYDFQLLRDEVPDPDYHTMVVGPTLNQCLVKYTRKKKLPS

[4] = system: intracellular T. cruzi amastigotes; experiment: Primary high-content intracellular T. cruzi amastigote assay; format: cell-based, Trypanosoma cruzi (Silvio X10/7 A1) in Vero cells
Protocol: (§1) The compounds tested were obtained from the NIH (Clinical Collection) and from SelleckChem (FDA-approved drug library). Compounds were dispensed into black 384-well assay plates (Corning) by acoustic dispensing (LabCyte ECHO). […] Potencies are reported as pEC50 (-LOG(EC50[M])).
(§2) For the primary intracellular assay the infection conditions were chosen so that no trypomastigote egress occurs during the compound incubation time. First, Vero cells were infected overnight with tissue culture derived T. cruzi trypomastigotes in T225 tissue culture flasks (MOI 5). Next, any remaining free trypomastigotes were washed away with serum free MEM and the infected Vero cells were harvested by trypsinisation. The infected Vero cells were then plated into 384-well plates containing the compounds to be tested, at 4000 cells per well in MEM media with 1% FCS. […] The plates were imaged on a Perkin Elmer Operetta high-content imaging system using a 20x objective. Images were analysed using the Columbus system (Perkin Elmer). The algorithm for the primary assay first identified the Vero nuclei followed by demarcation of the cytoplasm and identification of intracellular amastigotes. This algorithm reported mean number of parasites per Vero cell and total number of Vero cells. Data analysis was as described in [22]. […] Hits from the primary screen were selected based on the following criteria: T. cruzi activity (percent inhibition) > (median T. cruzi percent inhibition + 3 x robust Standard Deviation) and Vero activity (percent inhibition) < (median percent Vero inhibition + 3 x robust Standard Deviation).

[5] = system: Vero cells; experiment: Host cell toxicity read-out of the primary assay (Vero cell count); format: cell-based; settings: Chlorocebus sabaeus, Vero; hits of the bio-actives screen, 10-point dose-response, top concentration 50μM, 72h; read-out: pEC50 (Vero) (converted)
Protocol: as §1, §2

[6] = humans; cited from earlier work
[7] = Trypanosoma cruzi, Vero, 96 h, 0% = starting level of infection, 100% = 50μM Nifurtimox at 96h, only from concentrations not toxic to the host cells, read-out: MAX PI (SC), Maximum Percent Inhibition in the static cidal assay
[8] = read-out: CYP51 pIC50 (converted)
[9] = Trypanosoma cruzi; hits of the bio-actives screen, 10-point dose-response, top concentration 50μM, 72h; read-out: pEC50 (cruzi) (converted)
[10] = Trypanosoma cruzi, 72 h; read-out: EC50
[11] = Trypanosoma cruzi, 72 h; read-out: Mean pEC50 (converted)

| IC50 [3, 8] [nM] | Structure (SMILES) | MCC [1] [M] | Emax [2, 7] [%] | EC50 [4, 9] [nM] | EC50 [5] [nM] | rate-of-kill profile (onset / rate of cidal activity) [1] | other results |
| --- | --- | --- | --- | --- | --- | --- | --- |
| > 1000 | C[C@]12CC[C@H](O)CC1=CC[C@@H]1[C@@H]2CC[C@]2(C)C(c3cccnc3)=CC[C@@H]12 [Abiraterone] | 5.01e-05 | 60 | 794 | 31600 | – | – |
| > 10000 | CCOC(=O)C1=C(COCCN)NC(C)=C(C(=O)OC)C1c1ccccc1Cl (stereo not drawn) [Amlodipine] | – | 113 | 501 | – | – | – |
| > 10000 | CN1CCCC(n2nc(Cc3ccc(Cl)cc3)c3ccccc3c2=O)CC1 (stereo not drawn) [Azelastine] | 2e-06 | 106 | 251 | 15800 | a more delayed response | oral bioavailability [6]: reasonable oral bioavailability |
| 39.8 | c1ccc(-c2ccc(C(c3ccccc3)n3ccnc3)cc2)cc1 (stereo not drawn) [Bifonazole] | 6.31e-08 | 69 | 10 | 15800 | – | – |
| – | CN1CCC[C@@H]1CCO[C@](C)(c1ccccc1)c1ccc(Cl)cc1 [Clemastine] | 2e-07 | – | – | – | – | oral bioavailability [6]: reasonable oral bioavailability |
| – | CCOC(=O)C(C)(C)Oc1ccc(Cl)cc1 [Clofibrate] | 1.58e-05 | 116 | 6310 | 15800 | – | IC50 [3]: > 10000 nM; oral bioavailability [6]: reasonable oral bioavailability |
| – | Clc1ccccc1C(c1ccccc1)(c1ccccc1)n1ccnc1 [Clotrimazole] | 2.51e-08 | 60 | – | – | – | – |
| – | Clc1ccc(COC(Cn2ccnc2)c2ccc(Cl)cc2Cl)cc1 (stereo not drawn) [Econazole] | 6.31e-08 | 63 | – | – | – | – |
| > 10000 | CC(C(O)c1ccc(O)cc1)N1CCC(Cc2ccccc2)CC1 (stereo not drawn) [Ifenprodil] | 2e-06 | 117 | 501 | 50100 | – | oral bioavailability [6]: reasonable oral bioavailability |
| – | CCC(C)n1ncn(-c2ccc(N3CCN(c4ccc(OCC5COC(Cn6cncn6)(c6ccc(Cl)cc6Cl)O5)cc4)CC3)cc2)c1=O (stereo not drawn) [Itraconazole] | 6.31e-08 | 71 | 10 | 15800 | – | – |
| – | CC(=O)N1CCN(c2ccc(OCC3COC(Cn4ccnc4)(c4ccc(Cl)cc4Cl)O3)cc2)CC1 (stereo not drawn) [Ketoconazole] | 7.94e-09 | 61 | 5.01 | 31600 | – | EC50 [4, 10]: 2 nM; EC50 [4, 11]: 2 nM |
| – | CC1CS(=O)(=O)CCN1/N=C/c1ccc([N+](=O)[O-])o1 (stereo not drawn) [Nifurtimox] | 5.01e-06 | – | – | – | killing seen from 24h onwards | final residual level of infection (percent infected cells at the end of the assay) [1]: ~ 8%; MAX PI / maximum inhibition in the static-cidal assay [2]: around 100%; inhibition at 50 µM [2, 7]: 103%; IC50 [3]: > 10000 nM; EC50 [4, 10]: 260 nM; EC50 [4, 11]: 251 nM |
| – | Cc1cn(-c2cc(NC(=O)c3ccc(C)c(Nc4nccc(-c5cccnc5)n4)c3)cc(C(F)(F)F)c2)cn1 [Nilotinib] | – | 38 | 2510 | – | a much slower rate | CYP51 inhibition (in words) [3]: strong CYP51 inhibition |
| – | CC[C@@H]([C@H](C)O)n1ncn(-c2ccc(N3CCN(c4ccc(OC[C@@H]5CO[C@@](Cn6cncn6)(c6ccc(F)cc6F)C5)cc4)CC3)cc2)c1=O [Posaconazole] | 1e-07 | 59 | – | – | slower acting with a later onset of cidal activity | final residual level of infection (percent infected cells at the end of the assay) [1]: ~ 15%; MAX PI / maximum inhibition in the static-cidal assay [2]: 60%; EC50 [4, 10]: 1 nM; EC50 [4, 11]: 1 nM |
| – | C[C@@H](c1ncncc1F)[C@](O)(Cn1cncn1)c1ccc(F)cc1F [Voriconazole] | – | 70 | 25.1 | 50100 | – | – |
| > 10000 | O=C1Cc2cc(CCN3CCN(c4nsc5ccccc45)CC3)c(Cl)cc2N1 [Ziprasidone] | 5.01e-06 | 111 | 1580 | 25100 | fast onset of cidality | oral bioavailability [6]: reasonable oral bioavailability |

| Structure (SMILES) | IC50 [3, 8] [nM] | MCC [1] [M] | Emax [2, 7] [%] | EC50 [4, 9] [nM] | EC50 [5] [nM] | rate-of-kill profile (onset / rate of cidal activity) [1] | other results |
| --- | --- | --- | --- | --- | --- | --- | --- |
| O=C(Cn1ccnc1[N+](=O)[O-])NCc1ccccc1 [Benznidazole] | > 10000 | – | – | – | – | killing seen from 24h onwards | final residual level of infection (percent infected cells at the end of the assay) [1]: ~ 8%; MAX PI / maximum inhibition in the static-cidal assay [2]: around 100%; Emax ([2]; Trypanosoma cruzi, Vero, 96 h, read-out: MAX PI (SC), Maximum Percent Inhibition in the static cidal assay): 91%; EC50 ([4]; Trypanosoma cruzi, 72 h): 490 nM; EC50 ([4]; Trypanosoma cruzi, 72 h, read-out: Mean pEC50 (converted)): 501 nM |
